ChEMBL document CHEMBL2092589, “Liver-stage malaria parasites vulnerable to diverse chemical scaffolds” (Proc Natl Acad Sci U S A, 2012)
Structures can show the parent of a compound that is named as a salt.

Columns and labels:
[1] = (§1) HARVARD: Cytotoxicity in HepG2 cell line; conditions: human
Plasmodium berghei = experiment: HARVARD: Inhibition of liver stage Plasmodium berghei infection in HepG2 cells; assay type: functional, organism-based, ANKA
Plasmodium falciparum [2] = experiment: HARVARD: Inhibition of blood stage Plasmodium falciparum 3D7 infection; assay type: functional, organism-based
Plasmodium falciparum [3] = experiment: HARVARD: Inhibition of blood stage Plasmodium falciparum Dd2 infection; assay type: functional, organism-based
HepG2 = experiment: as §1; conditions: human, HepG2 cells
[4] = Plasmodium berghei, ANKA, HepG2

Compound	IC50 ([1]; HepG2 cells) [nM]	IC50 (Plasmodium berghei; [4]) [nM]	IC50 (Plasmodium falciparum [3]; Plasmodium falciparum, Dd2) [nM]	further results
CCCc1nc2c(C)cc(-c3nc4ccccc4n3C)cc2n1Cc1ccc(-c2ccccc2C(=O)O)cc1	> 10000	25	> 5000	IC50 (Plasmodium falciparum [2]; Plasmodium falciparum, 3D7): > 5000 nM
Nc1nc(Nc2ccc(S(N)(=O)=O)cc2)nn1C(=S)Nc1c(F)cccc1F	> 50000	472	258	
Nc1ccc2ncnc(NCCc3ccc(Oc4ccccc4)cc3)c2c1	59000	12	1170	
CCCCCC[C@H]1C(=O)O[C@H](C)[C@H](NC(=O)c2cccc(NC=O)c2O)C(=O)O[C@@H](C)[C@@H]1OC(=O)CC(C)C [ANTIMYCIN A]	> 100000	2.3		
COc1ccc(CCN2CCC(Nc3nc4ccccc4n3Cc3ccc(F)cc3)CC2)cc1 [ASTEMIZOLE]	12000			
O=C1C(O)=C([C@H]2CC[C@H](c3ccc(Cl)cc3)CC2)C(=O)c2ccccc21 [ATOVAQUONE]	> 10000	0.3		
Cc1cc(C2CCCCC2)n(O)c(=O)c1 [CICLOPIROX OLAMINE]	> 100000	1050		
CN1CCC[C@@H]1CCO[C@](C)(c1ccccc1)c1ccc(Cl)cc1 [CLEMASTINE FUMARATE]		951	456	IC50 ([1]; hepg2): > 50000 nM; IC50 (Plasmodium falciparum [2]; Plasmodium falciparum, 3D7): 658 nM
CCN(CC)CCOc1ccc(C(=C(Cl)c2ccccc2)c2ccccc2)cc1 [CLOMIPHENE]	11000	219		
C[C@@H]1C[C@@H]([C@H](O)CC2CC(=O)NC(=O)C2)C(=O)[C@@H](C)C1 [CYCLOHEXIMIDE]	> 100000	47		
C/C=C/C[C@@H](C)[C@@H](O)[C@H]1C(=O)N[C@@H](CC)C(=O)N(C)CC(=O)N(C)[C@@H](CC(C)C)C(=O)N[C@@H](C(C)C)C(=O)N(C)[C@@H](CC(C)C)C(=O)N[C@@H](C)C(=O)N[C@H](C)C(=O)N(C)[C@@H](CC(C)C)C(=O)N(C)[C@@H](CC(C)C)C(=O)N(C)[C@@H](C(C)C)C(=O)N1C [CYCLOSPORINE]		1.65		IC50 (Plasmodium falciparum [2]; Plasmodium falciparum, 3D7): 138 nM
COc1cccc2c1C(=O)c1c(O)c3c(c(O)c1C2=O)C[C@@](O)(C(C)=O)C[C@@H]3O[C@H]1C[C@H](N)[C@H](O)[C@H](C)O1 [DAUNORUBICIN]	9120	2990	155	IC50 (Plasmodium falciparum [2]; Plasmodium falciparum, 3D7): 340 nM
CCCCCCCCCCOc1cc2c(O)c(C(=O)OCC)cnc2cc1OCC [DECOQUINATE]	> 100000	5.4		
Cc1cc(N)c2ccccc2[n+]1CCCCCCCCCC[n+]1c(C)cc(N)c2ccccc21 [DEQUALINIUM CHLORIDE]	> 100000	1710	134	
COc1cccc2c1C(=O)c1c(O)c3c(c(O)c1C2=O)C[C@@](O)(C(=O)CO)C[C@@H]3O[C@H]1C[C@H](N)[C@H](O)[C@H](C)O1 [DOXORUBICIN]	11100	886	58	
CC[C@H]1CN2CCc3cc(OC)c(OC)cc3[C@@H]2C[C@@H]1C[C@H]1NCCc2cc(OC)c(OC)cc21 [EMETINE HYDROCHLORIDE]	10000	80	18	
COc1ccc2nc([S@@+]([O-])Cc3ncc(C)c(OC)c3C)[nH]c2c1 [ESOMEPRAZOLE POTASSIUM]	> 10000	291	> 50000	IC50 (Plasmodium falciparum [2]; Plasmodium falciparum, 3D7): > 50000 nM
CC(=O)O[C@@H]1C[C@H]2C(C)(C)C(=O)C=C[C@]2(C)[C@H]2CC[C@@]3(C)[C@H](c4ccoc4)OC(=O)[C@H]4O[C@]43[C@@]21C [GEDUNIN]	> 100000	760		
CC(=O)[C@]1(O)Cc2c(O)c3c(c(O)c2[C@@H](O[C@H]2C[C@H](N)[C@H](O)[C@H](C)O2)C1)C(=O)c1ccccc1C3=O [IDARUBICIN]	12300	6620	> 5000	IC50 (Plasmodium falciparum [2]; Plasmodium falciparum, 3D7): > 5000 nM

Compound	IC50 ([1]; HepG2 cells) [nM]	IC50 (Plasmodium berghei; [4]) [nM]	IC50 (Plasmodium falciparum [3]; Plasmodium falciparum, Dd2) [nM]	further results
O=C(c1ccc(F)cc1)C1CCN(CCn2c(=O)[nH]c3ccccc3c2=O)CC1 [KETANSERIN TARTRATE]	> 100000	1340	> 5000	
CC[C@@H](C(=O)[C@@H](C)[C@@H](O)[C@H](C)CCc1ccc(C)c(O)c1C(=O)O)[C@H]1O[C@](CC)([C@H]2CC[C@](O)(CC)[C@H](C)O2)C[C@@H]1C [LASALOCID A SODIUM]	> 100000	11		
CC[C@@]1([C@@H]2O[C@@H]([C@H]3O[C@@](O)(CO)[C@H](C)C[C@@H]3C)C[C@@H]2C)CC[C@H]([C@]2(C)CC[C@]3(C[C@H](O)[C@@H](C)[C@@H]([C@@H](C)[C@@H](OC)[C@H](C)C(=O)O)O3)O2)O1 [MONENSIN SODIUM]	> 100000			
CC[C@@]1([C@H]2O[C@H]([C@H]3O[C@@](O)(CO)[C@H](C)C[C@@H]3C)C[C@H]2C)CC[C@H]([C@@]2(C)CC[C@]3(C[C@H](O)[C@@H](C)[C@@H]([C@H](C)[C@H](OC)[C@@H](C)C(=O)O)O3)O2)O1 [MONENSIN SODIUM]		0.6		
COc1c(C)c2c(c(O)c1C/C=C(\C)CCC(=O)O)C(=O)OC2 [MYCOPHENOLIC ACID]	> 100000	1000	> 5000	
CCCCCCCCCc1ccc(OCCOCCOCCOCCOCCOCCOCCOCCOCCO)cc1 [NONOXYNOL 9]	61000	2310	> 5000	
CC[C@@H]1C=CC=CC[C@H](C)[C@@H](O)[C@@H](C)C(=O)[C@H](C)[C@@H](O)[C@H](C)C(=O)[C@H](C)[C@@H](O)[C@H](C)C=CC(=O)O[C@H]2[C@@H](C)[C@@H](CC1)O[C@@]1(CC[C@@H](C)[C@@H](C[C@H](C)O)O1)[C@@H]2C [OLIGOMYCIN C]	15000	0.5	111	
COc1ccc2[nH]c([S+]([O-])Cc3ncc(C)c(OC)c3C)nc2c1 (configuration not stated) [OMEPRAZOLE]	> 10000	680	> 50000	IC50 (Plasmodium falciparum [2]; Plasmodium falciparum, 3D7): > 50000 nM
CO[C@H](C(=O)[C@@H](O)[C@@H](C)O)[C@@H]1Cc2cc3cc(O[C@H]4C[C@@H](O[C@H]5C[C@@H](O)[C@H](O)[C@@H](C)O5)[C@H](O)[C@@H](C)O4)c(C)c(O)c3c(O)c2C(=O)[C@H]1O[C@H]1C[C@@H](O[C@H]2C[C@@H](O[C@H]3C[C@](C)(O)[C@H](O)[C@@H](C)O3)[C@@H](O)[C@@H](C)O2)[C@H](O)[C@@H](C)O1 [PLICAMYCIN]	> 10000			
CO[C@H](C(=O)[C@@H](O)[C@@H](C)O)[C@@H]1Cc2cc3cc(O[C@H]4C[C@@H](O[C@@H]5C[C@@H](O)[C@H](O)[C@@H](C)O5)[C@H](O)[C@@H](C)O4)c(C)c(O)c3c(O)c2C(=O)[C@H]1O[C@H]1C[C@@H](O[C@@H]2C[C@@H](O)[C@@H](O[C@@H]3C[C@](C)(O)[C@H](O)[C@@H](C)O3)[C@@H](C)O2)[C@H](O)[C@@H](C)O1 [PLICAMYCIN]		833	12.5	IC50 (Plasmodium falciparum [2]; Plasmodium falciparum, 3D7): 15 nM
COc1cc(NC(C)CCCN)c2ncccc2c1 (configuration not stated) [PRIMAQUINE PHOSPHATE]	> 100000	7400	794	
CCCC(C(=O)OCCN(CC)CC)(c1ccccc1)c1ccccc1 [PROADIFEN HYDROCHLORIDE]	57000	2780	722	
CCc1nc(N)nc(N)c1-c1ccc(Cl)cc1 [PYRIMETHAMINE]	> 10000	4.7		
CC[C@@H](C(=O)[C@@H](C)[C@@H](O)[C@H](C)[C@@H]1O[C@@H]([C@@H](CC)C(=O)O)CC[C@@H]1C)[C@H]1O[C@]2(C=C[C@@H](O)[C@]3(CC[C@@](C)([C@H]4CC[C@](O)(CC)[C@H](C)O4)O3)O2)[C@H](C)C[C@@H]1C [SALINOMYCIN SODIUM]	58000	2		
CC(C)=CC[C@@H](O)C1=CC(=O)c2c(O)ccc(O)c2C1=O [SHIKONIN]	28100	1370	> 5000	IC50 (Plasmodium falciparum [2]; Plasmodium falciparum, 3D7): > 5000 nM
COc1ccc2[nH]c([S+]([O-])Cc3ncc(C)c(OC)c3C)nc2n1 (configuration not stated) [TENATOPRAZOLE]	> 10000	224	> 5000	IC50 (Plasmodium falciparum [2]; Plasmodium falciparum, 3D7): > 5000 nM
CCCOc1ccccc1-c1nc2nn[nH]c2c(=O)[nH]1 [ZAPRINAST]	> 10000	7790	19300	IC50 (Plasmodium falciparum [2]; Plasmodium falciparum, 3D7): > 50000 nM
AURANOFIN				IC50 (HepG2): 5600 nM; IC50 (Plasmodium berghei; hepg2): 108 nM; IC50 (Plasmodium falciparum [2]): 343 nM; IC50 (Plasmodium falciparum [3]): 316 nM
